Experimental data taken from patent US9107446B2, “Solubilizates of preservatives and method for producing the same” (AQUANOVA AG, priority 2006, dated 2015).
Like-named read-outs stand apart in the source and are kept apart here.

Tests used:
bacteria = details: 500 mg added to nutrient solution with agar; about three weeks contact time
[1] = in water; cited from earlier work
[2] = cited from earlier work
Saccharomyces cerevisae = details: pH 6.2, room temperature; for Bacteria Count: 0.4 ml yeast solution

C/C=C/C=C/C(=O)[O-].[K+] [Potassium Sorbate]
Bacteria Count (bacteria): 1.6×10^10 | Solubility, Water [1]: 138 g/100 g

C/C=C/C=C/C(=O)O [Sorbic Acid]
Anion, dis. ([2]; pH Value 3): 1.7% | Anion, dis. ([2]; pH Value 4.0): 14.7% | Anion, dis. ([2]; pH Value 5.0): 63%

O=C(O)c1ccccc1 [Benzoic Acid]
Bacteria Count (Saccharomyces cerevisae; Benzoic Acid Concentration 10 ppm, After 3 days): 1,650,000/ml | Bacteria Count (Saccharomyces cerevisae; Benzoic Acid Concentration 10 ppm, After 7 days): 1,200,000/ml | Bacteria Count (Saccharomyces cerevisae; Benzoic Acid Concentration 10 ppm, After 15 days): 800,000/ml | Bacteria Count (Saccharomyces cerevisae; Benzoic Acid Concentration 10 ppm, After 22 days): 1,100,000/ml | Bacteria Count (Saccharomyces cerevisae; Benzoic Acid Concentration 10 ppm, After 29 days): 1,300,000/ml | Bacteria Count (Saccharomyces cerevisae; Benzoic Acid Concentration 10 ppm, Initial): 2,900/ml | Bacteria Count (Saccharomyces cerevisae; Benzoic Acid Concentration 50 ppm, After 3 days): 1,900,000/ml | Bacteria Count (Saccharomyces cerevisae; Benzoic Acid Concentration 50 ppm, After 7 days): 1,100,000/ml | Bacteria Count (Saccharomyces cerevisae; Benzoic Acid Concentration 50 ppm, After 15 days): 900,000/ml | Bacteria Count (Saccharomyces cerevisae; Benzoic Acid Concentration 50 ppm, After 22 days): 930,000/ml | Bacteria Count (Saccharomyces cerevisae; Benzoic Acid Concentration 50 ppm, After 29 days): 1,300,000/ml | Bacteria Count (Saccharomyces cerevisae; Benzoic Acid Concentration 50 ppm, Initial): 2,900/ml | Bacteria Count (Saccharomyces cerevisae; Benzoic Acid Concentration 100 ppm, After 3 days): 670,000/ml | Bacteria Count (Saccharomyces cerevisae; Benzoic Acid Concentration 100 ppm, After 7 days): 530,000/ml | Bacteria Count (Saccharomyces cerevisae; Benzoic Acid Concentration 100 ppm, After 15 days): 600,000/ml | Bacteria Count (Saccharomyces cerevisae; Benzoic Acid Concentration 100 ppm, After 22 days): 1,200,000/ml | Bacteria Count (Saccharomyces cerevisae; Benzoic Acid Concentration 100 ppm, After 29 days): 900,000/ml | Bacteria Count (Saccharomyces cerevisae; Benzoic Acid Concentration 100 ppm, Initial): 2,900/ml | Bacteria Count (Saccharomyces cerevisae; Benzoic Acid Concentration 200 ppm, After 3 days): 510,000/ml | Bacteria Count (Saccharomyces cerevisae; Benzoic Acid Concentration 200 ppm, After 7 days): 430,000/ml | Bacteria Count (Saccharomyces cerevisae; Benzoic Acid Concentration 200 ppm, After 15 days): 350,000/ml | Bacteria Count (Saccharomyces cerevisae; Benzoic Acid Concentration 200 ppm, After 22 days): 400,000/ml | Bacteria Count (Saccharomyces cerevisae; Benzoic Acid Concentration 200 ppm, After 29 days): 400,000/ml | Bacteria Count (Saccharomyces cerevisae; Benzoic Acid Concentration 200 ppm, Initial): 2,900/ml | Bacteria Count (Saccharomyces cerevisae; Benzoic Acid Concentration 300 ppm, After 3 days): 630,000/ml | Bacteria Count (Saccharomyces cerevisae; Benzoic Acid Concentration 300 ppm, After 7 days): 400,000/ml | Bacteria Count (Saccharomyces cerevisae; Benzoic Acid Concentration 300 ppm, After 15 days): 520,000/ml | Bacteria Count (Saccharomyces cerevisae; Benzoic Acid Concentration 300 ppm, After 22 days): 250,000/ml | Bacteria Count (Saccharomyces cerevisae; Benzoic Acid Concentration 300 ppm, After 29 days): 230,000/ml | Bacteria Count (Saccharomyces cerevisae; Benzoic Acid Concentration 300 ppm, Initial): 2,900/ml | Bacteria Count (Saccharomyces cerevisae; Benzoic Acid Concentration 500 ppm, After 3 days): 700 mL⁻¹ | Bacteria Count (Saccharomyces cerevisae; Benzoic Acid Concentration 500 ppm, After 7 days): 55,000/ml | Bacteria Count (Saccharomyces cerevisae; Benzoic Acid Concentration 500 ppm, After 15 days): 230,000/ml | Bacteria Count (Saccharomyces cerevisae; Benzoic Acid Concentration 500 ppm, After 22 days): 120,000/ml | Bacteria Count (Saccharomyces cerevisae; Benzoic Acid Concentration 500 ppm, After 29 days): 43,000/ml | Bacteria Count (Saccharomyces cerevisae; Benzoic Acid Concentration 500 ppm, Initial): 2,900/ml | yeast growth (in words) (Saccharomyces cerevisae; benzoic acid concentration of 500 ppm, after 29 days of contact time): high yeast growth | Anion, dis. ([2]; pH Value 3): 6% | Anion, dis. ([2]; pH Value 3.5): 16.7% | Anion, dis. ([2]; pH Value 4.0): 38.7% | Anion, dis. ([2]; pH Value 5.0): 86.5%
